Data set [1] concerns respiratory syncytial virus Long strain. The data set is described as follows: microbe, parasite or virus in culture. The format is cell-based. Particulars: for % cell protection from RSV at 4 µg/mL: human respiratory syncytial virus, 96 h, 4 μg/mL of compound, RSV Long strain-infected HEp-2 cells, compound added 1 hour post infection, 4 days, MTT.
A short description of a further data set: in vitro. Particulars: human.
Data set [2] concerns HEp-2 (ATCC CCL 23) cells.

Counter-ions that a name gives are not always drawn.

The values below come from patent publication US7030140B2, “Substituted benzimidazole antiviral agents” (Bristol-Myers Squibb Company, priority 1998, dated 2006).

Consider `CCCCn1c(Cn2nnc3ccccc32)nc2ccccc21` [Example 19, 1-(1-Butyl-1H-benzimidazol-2-ylmethyl)-1H-benzotriazole], for which the % cell protection from RSV at 4 µg/mL in data set [1] was 95%. For the same compound, the CC50 at 4 days in “in vitro” was determined as 12 µM.
Regarding `CC(C)CCn1c(Cn2nnc3ccccc32)nc2ccccc21` [Example 20, 1-[1-(3-Methylbutyl)-1H-benzimidazol-2-ylmethyl)-1H-benzotriazole], the % cell protection from RSV at 4 µg/mL in data set [1] is 87%. In addition, the CC50 at 4 days in “in vitro” was 40 µM.
In turn, `CC(C)=CCn1c(Cn2nnc3ccccc32)nc2ccccc21` [Example 21, 1-[1-(3-Methyl-2-butenyl)-1H-benzimidazol-2-ylmethyl]-1H-benzotriazole] yielded a % cell protection from RSV at 4 µg/mL in data set [1] of 98%. The compound also yielded a CC50 at 4 days in “in vitro” of 69 µM.
The matching figures for `CC(C)CCCn1c(Cn2nnc3ccccc32)nc2ccccc21` [Example 22, 1-[1-(4-Methylpentyl)-1H-benzimidazol-2-ylmethyl]-1H-benzotriazole]: 75% and 15 µM.
The like results for `CC(CCn1c(Cn2nnc3ccccc32)nc2ccccc21)CC(C)(C)C` (stereo not drawn) [Example 23, 1-[1-(3,5,5-Trimethyl-hexyl)-1H-benzimidazol-2-ylmethyl]-1H-benzotriazole] were, in that order, 98% and 59 µM.
Regarding `CSCCn1c(Cn2nnc3ccccc32)nc2ccccc21` [Example 24, 1-[1-(2-Methylthio-ethyl)-1H-benzimidazol-2-ylmethyl]-1H-benzotriazole], the % cell protection from RSV at 4 µg/mL in data set [1] amounted to 100%. Moreover, in “in vitro”, the CC50 at 4 days was 165 µM.
The matching figures for `C[S+]([O-])CCn1c(Cn2nnc3ccccc32)nc2ccccc21` (stereo not drawn) [Example 25, 1-[1-(2-Methylsulfinyl-ethyl)-1H-benzimidazol-2-ylmethyl]-1H-benzotriazole]: 100% and 56 µM.
The like results for `CS(=O)(=O)CCn1c(Cn2nnc3ccccc32)nc2ccccc21` [Example 26, 1-[1-(2-Methylsulfonyl-ethyl)-1H-benzimidazol-2-ylmethyl]-1H-benzotriazole] were, in that order, 100% and 200 µM.
The matching figures for `CC(C)(C)C(O)Cn1c(Cn2nnc3ccccc32)nc2ccccc21` (stereo not drawn) [Example 27, 1-(2-Benzotriazol-1-ylmethyl-1-H-benzimidazol-1-yl)-3,3-dimethylbutan-2-ol]: 44% and 117 µM.
In data set [1], `c1ccc2c(c1)nnn2Cc1nc2ccccc2n1CC1OCCO1` [Example 28] came in with a % cell protection from RSV at 4 µg/mL of 61%. In the data set “in vitro”, this compound returned a CC50 at 4 days of 29 µM.
The matching figures for `c1ccc2c(c1)nnn2Cc1nc2ccccc2n1CCC1OCCO1` [Example 29]: 98% and 185 µM.
The matching figures for `O=CCCn1c(Cn2nnc3ccccc32)nc2ccccc21` [Example 30, 1-[(2-Benzotriazol-1-ylmethyl)-1-H-benzimidazol-1-yl]-propionaldehyde]: 90% and 108 µM.
In data set [1], `OCCn1c(Cn2nnc3ccccc32)nc2ccccc21` [Example 31, 2-(2-Benzoatrizol-1-ylmethyl-benzimidazol-1-yl)-ethanol] displayed a % cell protection from RSV at 4 µg/mL of 48%. In the data set “in vitro”, this compound gave a CC50 at 4 days of 21 µM.
The matching figures for `CS(=O)(=O)OCCn1c(Cn2nnc3ccccc32)nc2ccccc21` [Example 32, Methanesulfonic Acid, 2-(2-benzotriazol-1-ylmethyl-benzimidazol-1-yl)-ethyl ester]: 60% and 71 µM.
The matching figures for `[N-]=[N+]=NCCn1c(Cn2nnc3ccccc32)nc2ccccc21` [Example 33, 1-[1-(2-Azido-ethyl)-1-H-benzimidazol-2-ylmethyl)-1H-benzotriazole]: 82% and 75 µM.
The like results for `CNC(=O)Cn1c(Cn2nnc3ccccc32)nc2ccccc21` [Example 35, 2-(2-Benzotriazol-1-ylmethyl-benzimidazol-1-yl)-N-methyl acetamide] were, in that order, 58% and 230 µM.
Consider `CC(=O)CCn1c(Cn2nnc3ccccc32)nc2ccccc21` [Example 37], for which the “% Cell protection at 4 μg/mL” value in data set [1] was 100%. For the same compound, the CC50 in data set [2] was 59 µM.
Compound `CC(O)CCn1c(Cn2nnc3ccccc32)nc2ccccc21` (stereo not drawn) [Example 38] came in with a % cell protection from RSV at 4 µg/mL in data set [1] of 100%. The CC50 at 4 days in “in vitro” was more than 309 µM.
The matching figures for `CC(CCn1c(Cn2nnc3ccccc32)nc2ccccc21)=NO` [Example 39]: 100% and more than 33 µM.
The like results for `CC(N)CCn1c(Cn2nnc3ccccc32)nc2ccccc21` (stereo not drawn) [Example 40, 3-(2-Benzotriazol-1-ylmethyl-benzimidazol-1-yl)-1-methyl-propylamine] were, in that order, 96% and 8.5 µM.
As for `NC(=O)CCn1c(Cn2nnc3ccccc32)nc2ccccc21` [Example 41, 3-(2-Benzotriazol-1-ylmethyl-1-H-benzimidazol-1-yl)-propionamide], the % cell protection from RSV at 4 µg/mL in data set [1] stood at 75%. Also, in the data set “in vitro”, the CC50 at 4 days was found to be 4.3 µM.
With `CC(C)(C)OC(=O)CCn1c(Cn2nnc3ccccc32)nc2ccccc21` [Example 42], the % cell protection from RSV at 4 µg/mL in data set [1] was 100%. Further, in the data set “in vitro”, the CC50 at 4 days amounted to 168 µM.
Consider `O=C(O)CCn1c(Cn2nnc3ccccc32)nc2ccccc21` [Example 43], for which, in data set [1], the % cell protection from RSV at 4 µg/mL was 82%. This compound came in with a CC50 at 4 days in “in vitro” of more than 309 µM.
The matching figures for `N/C(CCn1c(Cn2nnc3ccccc32)nc2ccccc21)=N\O` [Example 44, N-[3-(2-Benzotriazol-1-ylmethyl-benzimidazol-1-yl)-1-imino-propyl)-hydroxyamine]: 91% and 16 µM.
`N=C(N)CCn1c(Cn2nnc3ccccc32)nc2ccccc21` [Example 45, 3-(2-Benzotriazol-1-ylmethyl-benzimidazol-1-yl)-1-imino-1propyl-amine Diacetate] had a % cell protection from RSV at 4 µg/mL in data set [1] of 74%. In “in vitro”, this compound showed a CC50 at 4 days of 6.3 µM.
Compound `c1ccc(Cn2c(Cn3nnc4ccccc43)nc3ccccc32)cc1` [Example 46, 1-[(1-Phenylmethyl-1H-benzimidazol)-2-ylmethyl]-1H-benzotriazole] yielded a % cell protection from RSV at 4 µg/mL in data set [1] of 53%. In “in vitro”, the CC50 at 4 days stood at 97 µM.
The like results for `c1cncc(Cn2c(Cn3nnc4ccccc43)nc3ccccc32)c1` [Example 47, 1-[1-(Pyridin-3-yl-methyl)-1H-benzimidazol-2-ylmethyl]-1H-benzotriazole] were, in that order, 40% and 250 µM.
As for `c1ccc(CCn2c(Cn3nnc4ccccc43)nc3ccccc32)cc1` [Example 48, 1-[1-(2-Phenethyl)-1-H-benzimidazol-2-ylmethyl)-1H-benzotriazole], in data set [1], the % cell protection from RSV at 4 µg/mL is 95%. The CC50 at 4 days in the data set “in vitro” was 2.6 µM.
The like results for `O=C(Cn1c(Cn2nnc3ccccc32)nc2ccccc21)c1ccccc1` [Example 49, 2-[(2-Benzotriazol-1-ylmethyl)-benzimidazol-1-yl]-1-phenyl-ethanone] were, in that order, 76% and 18 µM.
In the case of `OC(Cn1c(Cn2nnc3ccccc32)nc2ccccc21)c1ccccc1` (stereo not drawn) [Example 50, 2-[(2-Benzotriazol-1-ylmethyl)-benzimidazol-1-yl]-1-phenyl-ethanol], the % cell protection from RSV at 4 µg/mL in data set [1] came to 94%. For the same compound, the CC50 at 4 days in “in vitro” amounted to 36 µM.
The matching figures for `CC(C)CCn1c(Cn2nc3ccccc3n2)nc2ccccc21` [Example 61, 2-[1-(3-methylbutyl)-1H-benzimidazol-2-ylmethyl]-2H-benzotriazole Dihydrochloride]: 78% and 27 µM.
In data set [1] (control compound at 2.5 μg/mL (corresponding to 10.2 μM)), `NC(=O)c1ncn([C@@H]2O[C@H](CO)[C@@H](O)[C@H]2O)n1` [Ribavirin, reference compound] yielded a cell protection of 100%.
